Measurements from PMC4729890 (Frontiers in Molecular Neuroscience, 2016).

Experiments:
ROS-GC1 [1] = target: T1, ROS-GC1 (Bos taurus, UniProt P55203, F570S); assay: biochemical
T1 construct: gene GUCY2D

ROS-GC1 [2] = target: T2, ROS-GC1 (Bos taurus, UniProt P55203); assay: biochemical
T2 construct: gene GUCY2D
T2 sequence (P55203 57-1110): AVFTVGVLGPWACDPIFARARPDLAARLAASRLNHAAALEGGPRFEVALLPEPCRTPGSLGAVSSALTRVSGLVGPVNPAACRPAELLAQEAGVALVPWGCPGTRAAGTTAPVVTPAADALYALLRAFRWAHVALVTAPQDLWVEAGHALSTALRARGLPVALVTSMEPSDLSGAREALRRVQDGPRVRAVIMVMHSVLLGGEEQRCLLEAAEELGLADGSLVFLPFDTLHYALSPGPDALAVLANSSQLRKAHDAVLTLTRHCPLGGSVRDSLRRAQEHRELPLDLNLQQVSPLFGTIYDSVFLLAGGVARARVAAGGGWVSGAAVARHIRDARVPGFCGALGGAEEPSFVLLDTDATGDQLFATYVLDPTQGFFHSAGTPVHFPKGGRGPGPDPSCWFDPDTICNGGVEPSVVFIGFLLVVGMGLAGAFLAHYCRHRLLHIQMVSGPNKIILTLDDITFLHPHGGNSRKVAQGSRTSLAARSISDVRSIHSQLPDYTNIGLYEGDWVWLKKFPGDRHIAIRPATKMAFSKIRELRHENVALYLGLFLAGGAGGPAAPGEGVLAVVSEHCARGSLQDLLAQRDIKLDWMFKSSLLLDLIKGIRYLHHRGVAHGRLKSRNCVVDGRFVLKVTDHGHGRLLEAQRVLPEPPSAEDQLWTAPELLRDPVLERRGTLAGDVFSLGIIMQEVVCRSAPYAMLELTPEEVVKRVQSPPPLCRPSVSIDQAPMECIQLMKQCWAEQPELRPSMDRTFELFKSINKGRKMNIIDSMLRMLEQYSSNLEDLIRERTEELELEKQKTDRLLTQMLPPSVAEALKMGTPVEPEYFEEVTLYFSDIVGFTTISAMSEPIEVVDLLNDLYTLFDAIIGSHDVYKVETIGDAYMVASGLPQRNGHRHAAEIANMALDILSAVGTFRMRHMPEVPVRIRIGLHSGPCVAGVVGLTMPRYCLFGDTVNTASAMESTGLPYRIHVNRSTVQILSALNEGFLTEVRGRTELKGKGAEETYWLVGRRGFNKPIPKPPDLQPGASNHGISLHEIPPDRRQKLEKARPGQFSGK

T1 sequence (P55203 57-1110 F570S): as the sequence (P55203 57-1110) above, with F514S counted along it

- EC50 (ROS-GC1 [1]): 25 mM
- EC50 (ROS-GC1 [2]): 16 mM
Structure (SMILES): O=C(O)O [bicarbonate]
